According to patent US10406146B2, “Heterocyclic compound” (TAKEDA PHARMACEUTICAL COMPANY LIMITED, priority 2015, dated 2019):

Columns and labels:
Assay type in all cases: biochemical
HDAC6 enzyme = biological target: T1, HDAC6 enzyme (Homo sapiens, UniProt Q9UBN7); experiment: HDAC6 enzyme inhibitory assay (HDAC-Glo I/II Assay kit); conditions: wells without enzyme = 100% inhibition; for inhibition at 1 µM: read-out: HDAC6 inhibitory rate (%) (1 μM)
T1 construct: transducing full length HDAC1 and HDAC6 genes into Sf-9 insect cells; GST; purchased SignalChem; host or cells: Sf-9 insect cells
T1 sequence (Q9UBN7 1-1215): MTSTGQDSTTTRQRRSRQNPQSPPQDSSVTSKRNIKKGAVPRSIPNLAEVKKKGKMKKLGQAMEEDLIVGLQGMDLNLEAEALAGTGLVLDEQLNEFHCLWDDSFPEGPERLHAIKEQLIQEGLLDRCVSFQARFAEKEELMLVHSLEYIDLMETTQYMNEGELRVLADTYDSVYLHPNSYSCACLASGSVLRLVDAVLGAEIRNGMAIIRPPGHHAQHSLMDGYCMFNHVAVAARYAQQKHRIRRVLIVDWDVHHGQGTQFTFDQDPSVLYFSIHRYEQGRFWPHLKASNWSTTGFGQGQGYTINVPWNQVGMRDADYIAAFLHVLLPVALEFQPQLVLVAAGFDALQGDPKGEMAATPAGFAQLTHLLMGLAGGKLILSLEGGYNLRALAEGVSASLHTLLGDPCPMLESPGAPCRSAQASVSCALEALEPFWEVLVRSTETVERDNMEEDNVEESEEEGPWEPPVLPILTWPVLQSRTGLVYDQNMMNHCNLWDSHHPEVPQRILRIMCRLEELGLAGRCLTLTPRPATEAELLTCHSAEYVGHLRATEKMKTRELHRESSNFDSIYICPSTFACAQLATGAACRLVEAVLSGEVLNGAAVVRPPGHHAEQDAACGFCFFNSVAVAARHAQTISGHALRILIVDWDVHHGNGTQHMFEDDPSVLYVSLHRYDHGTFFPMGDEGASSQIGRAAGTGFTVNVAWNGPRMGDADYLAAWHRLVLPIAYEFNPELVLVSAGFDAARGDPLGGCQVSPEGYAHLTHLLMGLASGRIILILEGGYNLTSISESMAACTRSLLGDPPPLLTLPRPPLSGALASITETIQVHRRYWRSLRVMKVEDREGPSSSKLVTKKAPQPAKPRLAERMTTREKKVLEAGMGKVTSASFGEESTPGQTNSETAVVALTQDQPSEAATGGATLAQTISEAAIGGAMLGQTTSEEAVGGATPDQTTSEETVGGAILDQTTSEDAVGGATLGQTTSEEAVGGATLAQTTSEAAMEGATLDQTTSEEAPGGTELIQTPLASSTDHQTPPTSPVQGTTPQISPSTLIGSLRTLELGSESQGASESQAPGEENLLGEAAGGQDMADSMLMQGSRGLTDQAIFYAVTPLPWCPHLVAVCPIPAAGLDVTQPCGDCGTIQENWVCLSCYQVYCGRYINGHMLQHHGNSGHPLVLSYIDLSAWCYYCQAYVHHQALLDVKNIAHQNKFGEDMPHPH
Method in brief: (§1)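 Full-length human HDAC1 or HDAC6, expressed in Sf-9 cells and GST-purified, was preincubated with compound for 60 min at room temperature in Tris-HCl pH 7.5 buffer with MgCl2, KCl, NaCl, glutathione and Tween-20. HDAC-Glo substrate-developer was then added, and luminescence was read after 20 min. Inhibition was referenced to no-enzyme wells as 100%.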

HDAC1 enzyme = biological target: T2, HDAC1 enzyme (Homo sapiens, UniProt Q13547); experiment: HDAC1 enzyme inhibitory assay (HDAC-Glo I/II Assay kit); conditions: wells without enzyme = 100% inhibition; for inhibition at 1 µM: read-out: HDAC1 inhibitory rate (%) (1 μM)
T2 construct: transducing full length HDAC1 and HDAC6 genes into Sf-9 insect cells; GST; purchased SignalChem; host or cells: Sf-9 insect cells
T2 sequence (Q13547 whole entry): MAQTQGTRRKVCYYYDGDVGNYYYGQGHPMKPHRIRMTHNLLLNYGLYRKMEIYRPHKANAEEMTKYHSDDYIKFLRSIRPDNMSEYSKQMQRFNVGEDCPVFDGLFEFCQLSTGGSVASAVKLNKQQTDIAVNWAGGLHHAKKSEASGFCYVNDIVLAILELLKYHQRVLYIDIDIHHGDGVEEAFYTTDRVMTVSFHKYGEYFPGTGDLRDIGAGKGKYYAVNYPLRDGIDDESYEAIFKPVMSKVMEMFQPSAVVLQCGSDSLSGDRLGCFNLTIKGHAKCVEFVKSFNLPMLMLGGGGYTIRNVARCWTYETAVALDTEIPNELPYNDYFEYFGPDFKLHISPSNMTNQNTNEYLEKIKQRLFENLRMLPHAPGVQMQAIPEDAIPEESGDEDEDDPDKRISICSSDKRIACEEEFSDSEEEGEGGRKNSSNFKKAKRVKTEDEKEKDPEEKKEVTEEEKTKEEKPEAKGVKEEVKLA
Method in brief: as §1

HDAC9 enzyme = biological target: T3, HDAC9 enzyme (Homo sapiens, UniProt Q9UKV0); experiment: HDAC9 enzyme inhibitory assay (HDAC-Glo class IIa); conditions: wells without enzyme = 100% inhibition; for inhibition at 1 µM: read-out: HDAC9 inhibitory rate (%) (1 μM)
T3 construct: transducing full length HDAC9 gene into Sf-9 insect cells; made in house; host or cells: Sf-9 insect cells
T3 sequence (Q9UKV0 whole entry, species assumed): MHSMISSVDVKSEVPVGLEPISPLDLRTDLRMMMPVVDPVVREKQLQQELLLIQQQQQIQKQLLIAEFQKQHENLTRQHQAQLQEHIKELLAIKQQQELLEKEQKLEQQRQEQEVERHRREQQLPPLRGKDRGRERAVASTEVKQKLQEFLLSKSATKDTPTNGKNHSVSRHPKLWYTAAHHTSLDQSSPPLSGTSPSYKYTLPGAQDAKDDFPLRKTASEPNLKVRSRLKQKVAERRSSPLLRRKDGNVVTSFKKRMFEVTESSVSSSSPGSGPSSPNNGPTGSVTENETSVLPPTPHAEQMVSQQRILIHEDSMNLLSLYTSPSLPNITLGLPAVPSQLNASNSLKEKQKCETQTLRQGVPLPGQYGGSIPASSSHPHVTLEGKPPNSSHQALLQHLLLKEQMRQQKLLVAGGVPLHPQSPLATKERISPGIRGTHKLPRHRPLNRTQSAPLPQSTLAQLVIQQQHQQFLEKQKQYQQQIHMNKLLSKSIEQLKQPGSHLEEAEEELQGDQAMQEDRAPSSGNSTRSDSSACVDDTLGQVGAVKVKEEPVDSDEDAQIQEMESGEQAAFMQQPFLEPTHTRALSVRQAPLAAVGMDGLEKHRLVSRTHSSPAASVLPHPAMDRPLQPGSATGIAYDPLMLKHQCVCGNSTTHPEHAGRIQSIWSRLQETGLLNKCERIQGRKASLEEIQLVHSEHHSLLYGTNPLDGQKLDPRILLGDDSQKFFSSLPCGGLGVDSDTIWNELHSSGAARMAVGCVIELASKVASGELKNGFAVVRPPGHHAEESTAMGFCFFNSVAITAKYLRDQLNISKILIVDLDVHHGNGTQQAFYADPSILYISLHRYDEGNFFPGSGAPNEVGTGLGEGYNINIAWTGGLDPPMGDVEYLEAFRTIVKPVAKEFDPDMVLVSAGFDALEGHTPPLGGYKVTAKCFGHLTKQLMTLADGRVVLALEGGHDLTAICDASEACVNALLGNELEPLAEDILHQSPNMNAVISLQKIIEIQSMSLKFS
Method in brief: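 Full-length human HDAC9 from Sf-9 cells, Ni-NTA purified, preincubated with compound for 60 min at room temperature in Tris-HCl pH 7.5 buffer (MgCl2, KCl, NaCl, glutathione, Tween-20). HDAC-Glo class IIa substrate-developer added; luminescence read after 20 min, with no-enzyme wells defining 100% inhibition.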

Row | inhibition at 1 µM (HDAC6 enzyme) [%] | inhibition at 1 µM (HDAC1 enzyme) [%] | inhibition at 1 µM (HDAC9 enzyme) [%] | Compound | HDAC6 inhibitory rate (%) (1 μM) (HDAC6 enzyme) | HDAC1 inhibitory rate (%) (1 μM) (HDAC1 enzyme) | HDAC9 inhibitory rate (%) (1 μM) (HDAC9 enzyme)
1 | 1 | 10 | 63 | Cn1nc(C(=O)NCC2CCCCN2C(=O)Nc2ccc(-c3noc(C(F)(F)F)n3)cc2)cc1C(F)(F)F (stereo not drawn) [Example 59, 2-((((1-methyl-5-(trifluoromethyl)-1H-pyrazol-3-yl)carbonyl)amino)methyl)-N-(4-(5-(trifluoromethyl)-1,2,4-oxadiazol-3-yl)phenyl)piperidine-1-carboxamide] |  |  | 
2 | 1 | 20 | 72 | O=C(NCC1CCCCN1C(=O)Nc1ccc(-c2noc(C(F)(F)F)n2)cc1)c1csc(C(F)(F)F)n1 (stereo not drawn) [Example 60, N-(4-(5-(trifluoromethyl)-1,2,4-oxadiazol-3-yl)phenyl)-2-((((2-(trifluoromethyl)-1,3-thiazol-4-yl)carbonyl)amino)methyl)piperidine-1-carboxamide] |  |  | 
3 | 8 | 62 | 98 | Cn1nccc1C(=O)NCC1COCCN1C(=O)Nc1ccc(-c2noc(C(F)(F)F)n2)cc1 (stereo not drawn) [Example 61, 3-((((1-methyl-1H-pyrazol-5-yl)carbonyl)amino)methyl)-N-(4-(5-(trifluoromethyl)-1,2,4-oxadiazol-3-yl)phenyl)morpholine-4-carboxamide] |  |  | 
4 | 6 | 53 | 92 | Cn1nccc1C(=O)NC[C@H]1COCCN1C(=O)Nc1ccc(-c2noc(C(F)(F)F)n2)cc1 [Example 62, (3S)-3-((((1-methyl-1H-pyrazol-5-yl)carbonyl)amino)methyl)-N-(4-(5-(trifluoromethyl)-1,2,4-oxadiazol-3-yl)phenyl)morpholine-4-carboxamide] |  |  | 
5 | 11 | 70 | 99 | Cn1nccc1C(=O)NC[C@@H]1COCCN1C(=O)Nc1ccc(-c2noc(C(F)(F)F)n2)cc1 [Example 63, (3R)-3-((((1-methyl-1H-pyrazol-5-yl)carbonyl)amino)methyl)-N-(4-(5-(trifluoromethyl)-1,2,4-oxadiazol-3-yl)phenyl)morpholine-4-carboxamide] |  |  | 
6 | 15 | 85 | 94 | O=C(NCC1COCCN1C(=O)Nc1ccc(-c2noc(C(F)(F)F)n2)cn1)c1ccccc1 (stereo not drawn) [Example 64, 3-((benzoylamino)methyl)-N-(5-(5-(trifluoromethyl)-1,2,4-oxadiazol-3-yl)pyridin-2-yl)morpholine-4-carboxamide] |  |  | 

Further lines, the compound ahead of its results:

Row | Compound | inhibition at 1 µM (HDAC6 enzyme) [%] | inhibition at 1 µM (HDAC1 enzyme) [%] | inhibition at 1 µM (HDAC9 enzyme) [%] | HDAC6 inhibitory rate (%) (1 μM) (HDAC6 enzyme) | HDAC1 inhibitory rate (%) (1 μM) (HDAC1 enzyme) | HDAC9 inhibitory rate (%) (1 μM) (HDAC9 enzyme)
7 | O=C(NCC1CCCCN1C(=O)Nc1ccc(-c2noc(C(F)(F)F)n2)cc1)C1CCCCC1 (stereo not drawn) [Example 50] |  |  |  | 7 | 79 | 95
8 | O=C(NCC1CCCCN1C(=O)Nc1ccc(-c2noc(C(F)(F)F)n2)cc1)C1CCOCC1 (stereo not drawn) [Example 51, 2-(((tetrahydro-2H-pyran-4-ylcarbonyl)amino)methyl)-N-(4-(5-(trifluoromethyl)-1,2,4-oxadiazol-3-yl)phenyl)piperidine-1-carboxamide] | 8 | 73 | 97 |  |  | 
9 | CN1CCC(C(=O)NCC2CCCCN2C(=O)Nc2ccc(-c3noc(C(F)(F)F)n3)cc2)CC1 (stereo not drawn) [Example 52, 2-((((1-methylpiperidin-4-yl)carbonyl)amino)methyl)-N-(4-(5-(trifluoromethyl)-1,2,4-oxadiazol-3-yl)phenyl)piperidine-1-carboxamide] | 6 | 27 | 80 |  |  | 
10 | CC(=O)N1CCC(C(=O)NCC2CCCCN2C(=O)Nc2ccc(-c3noc(C(F)(F)F)n3)cc2)CC1 (stereo not drawn) [Example 53, 2-((((1-acettylpiperidin-4-yl)carbonyl)amino)methyl)-N-(4-(5-(trifluoromethyl)-1,2,4-oxadiazol-3-yl)phenyl)piperidine-1-carboxamide] |  |  |  | 7 | 32 | 94
11 | O=C(NCC1CCCCN1C(=O)Nc1ccc(-c2noc(C(F)(F)F)n2)cc1)Nc1ccccc1 (stereo not drawn) [Example 54, 2-(((phenylcarbamoyl)amino)methyl)-N-(4-(5-(trifluoromethyl)-1,2,4-oxadiazol-3-yl)phenyl)piperidine-1-carboxamide] | 6 | 17 | 89 |  |  | 
12 | Cc1cccc(C(=O)NCC2CCCCN2C(=O)Nc2ccc(-c3noc(C(F)(F)F)n3)cc2)n1 (stereo not drawn) [Example 55, 6-methyl-N-((1-((4-(5-(trifluoromethyl)-1,2,4-oxadiazol-3-yl)phenyl)carbamoyl)piperidin-2-yl)methyl)pyridine-2-carboxamide] | 2 | 31 | 85 |  |  | 
13 | Cc1ccnc(C(=O)NCC2CCCCN2C(=O)Nc2ccc(-c3noc(C(F)(F)F)n3)cc2)c1 (stereo not drawn) [Example 56, 4-methyl-N-((1-((4-(5-(trifluoromethyl)-1,2,4-oxadiazol-3-yl)phenyl)carbamoyl)piperidin-2-yl)methyl)pyridine-2-carboxamide] | 4 | 25 | 83 |  |  | 
14 | Cc1cc(C(=O)NCC2CCCCN2C(=O)Nc2ccc(-c3noc(C(F)(F)F)n3)cc2)ccn1 (stereo not drawn) [Example 57, 2-methyl-N-((1-((4-(5-(trifluoromethyl)-1,2,4-oxadiazol-3-yl)phenyl)carbamoyl)piperidin-2-yl)methyl)isonicotinamide] | 6 | 38 | 94 |  |  | 
15 | O=C(NCC1CCCCN1C(=O)Nc1ccc(-c2noc(C(F)(F)F)n2)cc1)c1ccnc(O)c1 (stereo not drawn) [Example 58] |  |  |  | 3 | 25 | 87
